Results taken from patent US20260055097A9, “NRF2 PROTEIN DEGRADERS” (Ganymede Oncology, Inc., priority 2022, published 2026).

Experiments:
Format in all cases: cell-based
[1] = system: A549; test: Cancer cell viability, A549 (CellTiter-Glo); settings: Homo sapiens, 72 h, A549 cells, 3 days, read-out: Cellular IC50 (μM) A549
In short: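 A549 and/or LK-2 lung carcinoma cells seeded overnight (20 K/mL A549; 35 K/mL LK-2), then exposed to compound for 3 days. Viability read as CellTiter-Glo luminescence after 15 min lysis; data fitted to curves.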

[2] = system: LK-2; test: Cancer cell viability, LK-2 (CellTiter-Glo); settings: Homo sapiens, LK-2, 72 h, LK-2 cells, 3 days, read-out: Cellular IC50 (μM) LK-2
In short: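 A549 and LK-2 cells were seeded overnight at 20 K/mL and 35 K/mL respectively. They were then exposed for 3 days to nine three-fold dilutions, typically from 30 µM final. Viability was read as CellTiter-Glo luminescence after a 15 min lysis.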

[3] = target: T1, Nrf2 (Homo sapiens, UniProt Q16236); test: Protein degradation assay in huH1 cells by Western blot; parameters: tested for protein degradation in huH1 cells; host or cells: huH1 (Huh1) human hepatoma cells
T1 sequence (Q16236 1-605): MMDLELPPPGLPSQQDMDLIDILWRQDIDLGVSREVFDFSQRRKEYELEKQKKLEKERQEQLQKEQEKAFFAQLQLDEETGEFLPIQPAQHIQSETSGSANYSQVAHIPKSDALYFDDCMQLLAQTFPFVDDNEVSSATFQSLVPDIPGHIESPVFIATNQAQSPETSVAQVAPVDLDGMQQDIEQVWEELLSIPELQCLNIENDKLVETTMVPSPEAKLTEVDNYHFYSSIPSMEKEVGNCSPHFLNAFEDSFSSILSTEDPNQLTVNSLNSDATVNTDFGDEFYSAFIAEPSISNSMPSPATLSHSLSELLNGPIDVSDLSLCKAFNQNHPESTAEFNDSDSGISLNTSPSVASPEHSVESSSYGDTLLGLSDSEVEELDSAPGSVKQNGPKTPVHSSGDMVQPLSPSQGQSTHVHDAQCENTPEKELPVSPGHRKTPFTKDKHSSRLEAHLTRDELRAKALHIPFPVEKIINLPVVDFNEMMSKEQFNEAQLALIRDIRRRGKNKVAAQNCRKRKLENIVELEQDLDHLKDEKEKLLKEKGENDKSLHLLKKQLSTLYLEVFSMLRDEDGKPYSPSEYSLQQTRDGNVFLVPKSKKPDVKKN
Protocol: Representative Compounds of the Disclosure were tested for protein degradation in huH1 cells (Vendor: JCRB: Cat #JCRB0199; Description: Human hepatoma) by Western blot analysis according to the following general protocol.
Day 0: Plated the Huh1 cells into 10-cm dishes (1.5×10^6/dish)
Day 1: Treated the cells with compounds at five concentrations, e.g., 0.01 μM, 0.04 μM, 0.11 μM, 0.33 μM and 1 μM; or 0.4 μM, 1.1 μM, 3.3 μM, 10 μM, and 30 μM.
Day 4: Harvested the cell pellets, spilt 1/3 of the pellet to extract RNA by Nucleospin RNA plus kit and measure Nrf2 and GPX2 by RT-PCR, the remaining 2/3 of the pellet to run Western blot analysis.
• a) Cell samples were lysed with lysis buffer (1×Cell lysis buffer added Protease inhibitor and phosphatase inhibitor) on ice for 5˜10 min and spun at 15,000 rpm in an Eppendorf microfuge for 15 min at 4° C. • b) The protein supernatant was collected in a new 1.5 ml tube and the protein concentrations were determined by the Pierce BCA kit (Thermo #23225). • c) Mixed protein sample with 5×SDS-PAGE loading buffer. • d) Boiled for 5 min. • e) Cooled at RT or on ice for 5 min. • f) Flash spun to bring down condensation prior to loading gel.
• a) After flash spinning the samples, 20 μg protein were loaded into the wells. • b) Using SDS-PAGE running buffer. • c) Run with Constant Voltage (70 V) for 1.5-2 hr. Membrane transfer • a) Assembled “sandwich” for Invitrogen iBlot. • b) Transferred for 9 min using P0 program. • c) Immersed membrane in Odyssey blocking buffer or 5% BSA for at least 1 hr.
• a) Incubated with 1st Antibody 1:500 diluted in blocking buffer overnight at 4° C. • b) Washed 4×15 min with 0.05-0.1% Tween 20 in TBS. • c) Incubated with secondary antibody 1:10K diluted in blocking buffer for at least 1 hr at RT. • d) Washed 3×15 min with 0.05-0.1% Tween 20 in TBS. • e) Detected with ODYSSEY (Li—COR) The results are provided in Table 5.

[4] = target: T1, Nrf2; test: Nrf2 degradation in A549 HiBiT-Nrf2 cells, Nano-Glo HiBiT lytic detection (HiBiT readout); parameters: host or cells: A549 HiBiT-Nrf2 cells (engineered line bought from Promega)
In short: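 A549 HiBiT-Nrf2 cells seeded at 5,000 cells/well in Ham's F-12 with 10% FBS, then treated next day for 6 h and 20 h at 37 °C, 5% CO2. Nrf2 degradation read by Nano-Glo HiBiT lytic luminescence after 30 min at room temperature; staurosporine served as control.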

[5] = X marks the class 0.1-1 μM, read-out: DC50 huHI1 cells 0.1-1 μM

Row | Structure (SMILES) | IC50 [1] [µM] | IC50 [2] [µM] | DC50 [3, 5] [nM] | DC50 ([3]; X marks the class >10 μM, read-out: DC50 huHI1 cells >10 μM) [nM] | DC50 ([4]; 6 h, read-out: DC50 (nM) at 6 h) [nM] | DC50 ([4]; 20 h, read-out: DC50 (nM) at 20 h) [nM]
1 | Cc1ccccc1C(=O)N1CCc2cc(-c3nc(NC(=O)Cc4cccc(OCCOCCNc5cccc6c5C(=O)N(C5CCC(=O)NC5=O)C6=O)c4)sc3C)ccc21 (centres unmarked) [Cpd. No. 1, 2-(3-(2-(2-((2-(2,6-dioxopiperidin-3-yl)-1,3-dioxoisoindolin-4-yl)amino)ethoxy)ethoxy)phenyl)-N-(5-methyl-4-(1-(2-methylbenzoyl)indolin-5-yl)thiazol-2-yl)acetamide] | 0.1 | 0.04 | 100 to 1000 | – | – | –
2 | Cc1ccccc1C(=O)N1CCc2cc(-c3nc(NC(=O)Cc4cccc(OCCOCCOCCNc5cccc6c5C(=O)N(C5CCC(=O)NC5=O)C6=O)c4)sc3C)ccc21 (centres unmarked) [Cpd. No. 2, 2-(3-(2-(2-(2-((2-(2,6-dioxopiperidin-3-yl)-1,3-dioxoisoindolin-4-yl)amino)ethoxy)ethoxy)ethoxy)phenyl)-N-(5-methyl-4-(1-(2-methylbenzoyl)indolin-5-yl)thiazol-2-yl)acetamide] | > 30 | – | – | > 10000 | – | –
3 | Cc1ccccc1C(=O)N1CCc2cc(-c3nc(NC(=O)Cc4cccc(OCCOCCOc5cccc6c5C(=O)N(C5CCC(=O)NC5=O)C6=O)c4)sc3C)ccc21 (centres unmarked) [Cpd. No. 12, 2-(3-(2-(2-((2-(2,6-dioxopiperidin-3-yl)-1,3-dioxoisoindolin-4-yl)oxy)ethoxy)ethoxy)phenyl)-N-(5-methyl-4-(1-(2-methylbenzoyl)indolin-5-yl)thiazol-2-yl)acetamide] | ~30 | 0.3 | 100 to 1000 | – | > 3000 | > 3000
4 | Cc1ccccc1C(=O)N1CCc2cc(-c3nc(NC(=O)Cc4cccc(OCCOCCOCCOCCOc5ccc6c(c5)C(=O)N(C5CCC(=O)NC5=O)C6=O)c4)sc3C)ccc21 (centres unmarked) [Cpd. No. 13, 2-(3-(2-(2-(2-(2-((2-(2,6-dioxopiperidin-3-yl)-1,3-dioxoisoindolin-5-yl)oxy)ethoxy)ethoxy)ethoxy)ethoxy)phenyl)-N-(5-methyl-4-(1-(2-methylbenzoyl)indolin-5-yl)thiazol-2-yl)acetamide] | – | – | 100 to 1000 | – | – | –
